# Test results: ChEMBL document CHEMBL3045793, “The synthesis, anti-inflammatory and antimicrobial activity evaluation of novel thioanalogs of 3,4-dihydrothiopyrimidin-2(1H)-one derivatives of N-aryl urea” (2012)
# Calls of active or inactive are those of the source. The calls are words filed in the database; no cut-off is given here.
# Legend:
# Aspergillus flavus [1] = test: Antifungal activity against Aspergillus flavus by agar well diffusion method; assay type: functional
# Fusarium solani [2] = test: Antifungal activity against Fusarium solani by agar well diffusion method; assay type: functional
# Aspergillus niger [3] = test: Antifungal activity against Aspergillus niger by agar well diffusion method; assay type: functional
# Candida albicans [4] = test: Antifungal activity against Candida albicans by agar well diffusion method; assay type: functional
# Escherichia coli [5] = test: Antibacterial activity against Escherichia coli by agar well diffusion method; assay type: functional
# Salmonella typhimurium [6] = test: Antibacterial activity against Salmonella enterica subsp. enterica serovar Typhimurium by agar well diffusion method; assay type: functional
# Bacillus subtilis [7] = test: Antibacterial activity against Bacillus subtilis by agar well diffusion method; assay type: functional
# Staphylococcus aureus [8] = test: Antibacterial activity against Staphylococcus aureus by agar well diffusion method; assay type: functional
# THP-1 [9] = test: Anti-inflammatory activity in Homo sapiens (human) THP1 cells assessed as inhibition of LPS-induced IL-6 production preincubated at 10 uM for 30 min before LPS treatment measured after 24 hr by ELISA; assay type: functional
# THP-1 [10] = test: Anti-inflammatory activity in Homo sapiens (human) THP1 cells assessed as inhibition of LPS-induced TNF-alpha production preincubated at 10 uM for 30 min before LPS treatment measured after 24 hr by ELISA; assay type: functional
# Fusarium solani [11] = test: Antifungal activity against Fusarium solani up to 200 ug/ml by agar well diffusion method; assay type: functional, organism-based
# Bacillus subtilis [12] = test: Antibacterial activity against Bacillus subtilis up to 200 ug/ml by agar well diffusion method; assay type: functional, organism-based
# THP-1 [13] = test: Anti-inflammatory activity in Homo sapiens (human) THP1 cells assessed as inhibition of LPS-induced IL-6 production preincubated at 1 uM for 30 min before LPS treatment measured after 24 hr by ELISA; assay type: functional
# THP-1 [14] = test: Anti-inflammatory activity in Homo sapiens (human) THP1 cells assessed as inhibition of LPS-induced TNF-alpha production preincubated at 1 uM for 30 min before LPS treatment measured after 24 hr by ELISA; assay type: functional
# Aspergillus flavus [15] = test: Antifungal activity against Aspergillus flavus up to 200 ug/ml by agar well diffusion method; assay type: functional, organism-based
# Aspergillus niger [16] = test: Antifungal activity against Aspergillus niger up to 200 ug/ml by agar well diffusion method; assay type: functional, organism-based
# Candida albicans [17] = test: Antifungal activity against Candida albicans up to 200 ug/ml by agar well diffusion method; assay type: functional, organism-based
# Salmonella typhimurium [18] = test: Antibacterial activity against Salmonella enterica subsp. enterica serovar Typhimurium up to 200 ug/ml by agar well diffusion method; assay type: functional, organism-based
# Escherichia coli [19] = test: Antibacterial activity against Escherichia coli up to 200 ug/ml by agar well diffusion method; assay type: functional, organism-based
# Staphylococcus aureus [20] = test: Antibacterial activity against Staphylococcus aureus up to 200 ug/ml by agar well diffusion method; assay type: functional, organism-based
SMILES,MIC (Aspergillus flavus [1]) [µg/mL],MIC (Fusarium solani [2]) [µg/mL],MIC (Aspergillus niger [3]) [µg/mL],MIC (Candida albicans [4]) [µg/mL],MIC (Escherichia coli [5]) [µg/mL],MIC (Salmonella typhimurium [6]) [µg/mL],MIC (Bacillus subtilis [7]) [µg/mL],MIC (Staphylococcus aureus [8]) [µg/mL],inhibition at 10 µM (THP-1 [9]) [%],inhibition at 10 µM (THP-1 [10]) [%],Activity (Fusarium solani [11]),Activity (Bacillus subtilis [12]),inhibition at 1 µM (THP-1 [13]) [%],inhibition at 1 µM (THP-1 [14]) [%],Activity (Aspergillus flavus [15]),Activity (Aspergillus niger [16]),Activity (Candida albicans [17]),Activity (Salmonella typhimurium [18]),Activity (Escherichia coli [19]),Activity (Staphylococcus aureus [20])
Clc1ccc(COC(Cn2ccnc2)c2ccc(Cl)cc2Cl)c(Cl)c1 (stereo unspecified) [MICONAZOLE],20,15,20,25,–,–,–,–,–,–,–,–,–,–,–,–,–,–,–,–
CCOC(=O)C1=C(C)NC(=S)NC1c1ccc(NC(=S)Nc2ccccc2Cl)cc1 (stereo unspecified),15,10,10,10,10,20,35,20,36,0,–,–,–,–,–,–,–,–,–,–
C[C@@H]1C[C@H]2[C@@H]3CCC4=CC(=O)C=C[C@]4(C)[C@@]3(F)[C@@H](O)C[C@]2(C)[C@@]1(O)C(=O)CO [DEXAMETHASONE],–,–,–,–,–,–,–,–,–,–,–,–,84,71,–,–,–,–,–,–
CCOC(=O)C1=C(C)NC(=S)NC1c1ccc(NC(=O)Nc2ccccc2Oc2ccccc2)cc1 (stereo unspecified),35,45,60,40,85,65,60,55,42,0,–,–,–,–,–,–,–,–,–,–
CCOC(=O)C1=C(C)NC(=S)NC1c1ccc(NC(=S)Nc2c(F)cccc2Cl)cc1 (stereo unspecified),–,–,85,65,85,60,80,60,56,42,inactive,–,–,–,inactive,–,–,–,–,–
CCCCc1ccc(NC(=S)Nc2ccc(C3NC(=S)NC(C)=C3C(=O)OCC)cc2)cc1 (stereo unspecified),–,–,–,–,–,–,–,–,8,0,inactive,inactive,–,–,inactive,inactive,inactive,inactive,inactive,inactive

# The next lines start with results.
MIC (Aspergillus flavus [1]) [µg/mL],MIC (Fusarium solani [2]) [µg/mL],MIC (Aspergillus niger [3]) [µg/mL],MIC (Candida albicans [4]) [µg/mL],MIC (Escherichia coli [5]) [µg/mL],MIC (Salmonella typhimurium [6]) [µg/mL],MIC (Bacillus subtilis [7]) [µg/mL],MIC (Staphylococcus aureus [8]) [µg/mL],SMILES,inhibition at 10 µM (THP-1 [9]) [%],inhibition at 10 µM (THP-1 [10]) [%],Activity (Fusarium solani [11]),Activity (Bacillus subtilis [12]),inhibition at 1 µM (THP-1 [13]) [%],inhibition at 1 µM (THP-1 [14]) [%],Activity (Aspergillus flavus [15]),Activity (Aspergillus niger [16]),Activity (Candida albicans [17]),Activity (Salmonella typhimurium [18]),Activity (Escherichia coli [19]),Activity (Staphylococcus aureus [20])
95,70,80,80,90,90,55,70,CCOC(=O)C1=C(C)NC(=S)NC1c1ccc(NC(=S)Nc2ccc(C(C)C)cc2)cc1 (stereo unspecified),90,61,–,–,–,–,–,–,–,–,–,–
90,–,90,85,90,90,–,65,CCOC(=O)C1=C(C)NC(=S)NC1c1ccc(NC(=S)Nc2c(Cl)cccc2C(F)(F)F)cc1 (stereo unspecified),62,46,inactive,inactive,–,–,–,–,–,–,–,–
15,10,10,10,10,30,15,10,CCOC(=O)C1=C(C)NC(=S)NC1c1ccc(NC(=S)Nc2ccc(C(F)(F)F)cc2)cc1 (stereo unspecified),48,8,–,–,–,–,–,–,–,–,–,–
–,95,–,–,–,–,–,80,CCOC(=O)C1=C(C)NC(=S)NC1c1ccc(NC(=S)Nc2ccc(F)c(Cl)c2)cc1 (stereo unspecified),58,0,–,inactive,–,–,inactive,inactive,inactive,inactive,inactive,–
15,15,25,15,20,15,35,20,CCOC(=O)C1=C(C)NC(=S)NC1c1ccc(NC(=S)Nc2cccc(C(F)(F)F)c2)cc1 (stereo unspecified),16,0,–,–,–,–,–,–,–,–,–,–
80,45,30,55,40,45,55,35,CCOC(=O)C1=C(C)NC(=S)NC1c1ccc(NC(=S)Nc2c(F)cccc2C(F)(F)F)cc1 (stereo unspecified),30,0,–,–,–,–,–,–,–,–,–,–
20,20,50,20,15,40,10,10,CCOC(=O)C1=C(C)NC(=S)NC1c1ccc(NC(=S)Nc2ccccc2C(F)(F)F)cc1 (stereo unspecified),18,8,–,–,–,–,–,–,–,–,–,–
